Experimental data: ChEMBL document CHEMBL5058646 (2022)

How the values were obtained:
[1] = target: Serine/threonine-protein kinase 24 (Homo sapiens) (UniProt Q9Y6E0); assay: STK24 SGC Tm panel (DSF); settings: Compound concentration 20.0 uM
[2] = target: T1, Zinc finger and BTB domain-containing protein 1 (Homo sapiens) (UniProt Q9Y2K1); settings: SUD4, Compound concentration 1.0 uM
T1 sequence (whole entry): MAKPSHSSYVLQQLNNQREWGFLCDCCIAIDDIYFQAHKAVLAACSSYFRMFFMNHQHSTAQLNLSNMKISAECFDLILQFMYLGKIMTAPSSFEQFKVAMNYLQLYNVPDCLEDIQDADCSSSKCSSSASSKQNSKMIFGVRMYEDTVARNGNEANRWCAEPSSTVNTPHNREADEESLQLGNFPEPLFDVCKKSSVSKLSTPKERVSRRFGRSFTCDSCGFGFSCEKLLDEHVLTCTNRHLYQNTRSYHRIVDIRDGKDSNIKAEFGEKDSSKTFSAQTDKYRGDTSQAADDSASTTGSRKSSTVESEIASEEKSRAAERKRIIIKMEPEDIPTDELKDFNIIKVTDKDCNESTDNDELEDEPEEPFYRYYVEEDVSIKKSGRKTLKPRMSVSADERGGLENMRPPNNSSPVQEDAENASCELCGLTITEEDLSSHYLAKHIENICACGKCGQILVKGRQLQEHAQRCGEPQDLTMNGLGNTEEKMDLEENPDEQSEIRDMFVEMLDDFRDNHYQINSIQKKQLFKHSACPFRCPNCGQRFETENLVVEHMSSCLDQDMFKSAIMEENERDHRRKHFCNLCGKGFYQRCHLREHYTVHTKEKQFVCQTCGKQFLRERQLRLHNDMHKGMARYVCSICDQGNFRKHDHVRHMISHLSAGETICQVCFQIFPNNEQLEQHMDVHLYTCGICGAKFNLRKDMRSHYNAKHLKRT

[3] = target: Dual specificity mitogen-activated protein kinase kinase 4 (Homo sapiens) (UniProt P45985); assay: MAP2K4 SGC Tm panel (DSF); settings: Compound concentration 20.0 uM
Dual specificity mitogen-activated protein kinase kinase 4 (Homo sapiens), sequence (P45985 whole entry): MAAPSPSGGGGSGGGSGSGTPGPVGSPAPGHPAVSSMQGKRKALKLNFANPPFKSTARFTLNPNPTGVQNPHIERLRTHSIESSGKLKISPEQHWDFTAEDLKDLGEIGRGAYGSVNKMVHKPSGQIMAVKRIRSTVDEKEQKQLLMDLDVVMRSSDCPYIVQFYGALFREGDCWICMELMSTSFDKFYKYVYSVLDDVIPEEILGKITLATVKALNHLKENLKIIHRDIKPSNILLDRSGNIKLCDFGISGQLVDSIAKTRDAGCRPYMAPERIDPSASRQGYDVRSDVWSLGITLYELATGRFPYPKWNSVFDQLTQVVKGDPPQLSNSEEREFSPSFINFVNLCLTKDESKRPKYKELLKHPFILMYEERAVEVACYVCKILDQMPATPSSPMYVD

[4] = target: Ribosomal protein S6 kinase alpha-5 (Homo sapiens) (UniProt O75582); assay: RPS6KA5 SGC Tm panel (DSF); settings: Compound concentration 20.0 uM
Histamine H3 receptor = Histamine H3 receptor (Homo sapiens, UniProt Q9Y5N1); assay: GPCRScan assay: inhibition of H3; set-up: radioligand conc. used [nm] 0.5 – 1.0, parental cells HEK Flp-In
Histamine H3 receptor, sequence (Q9Y5N1 whole entry): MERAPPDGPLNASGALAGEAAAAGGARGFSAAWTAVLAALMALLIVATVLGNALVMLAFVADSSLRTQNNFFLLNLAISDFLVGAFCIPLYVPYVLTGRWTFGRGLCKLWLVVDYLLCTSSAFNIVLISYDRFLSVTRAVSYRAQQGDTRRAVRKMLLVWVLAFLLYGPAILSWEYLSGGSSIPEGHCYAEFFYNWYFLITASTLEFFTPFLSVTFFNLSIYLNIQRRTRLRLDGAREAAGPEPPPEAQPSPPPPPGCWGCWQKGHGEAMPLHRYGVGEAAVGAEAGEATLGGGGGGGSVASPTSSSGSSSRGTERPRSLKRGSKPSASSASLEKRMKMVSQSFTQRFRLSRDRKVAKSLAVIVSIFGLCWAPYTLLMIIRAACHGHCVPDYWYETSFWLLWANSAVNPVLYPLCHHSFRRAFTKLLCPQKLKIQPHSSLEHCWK

[5] = target: 5-hydroxytryptamine receptor 5A (Homo sapiens) (UniProt P47898); settings: Compound concentration 10.0 uM
5-hydroxytryptamine receptor 5A (Homo sapiens), sequence (P47898 whole entry): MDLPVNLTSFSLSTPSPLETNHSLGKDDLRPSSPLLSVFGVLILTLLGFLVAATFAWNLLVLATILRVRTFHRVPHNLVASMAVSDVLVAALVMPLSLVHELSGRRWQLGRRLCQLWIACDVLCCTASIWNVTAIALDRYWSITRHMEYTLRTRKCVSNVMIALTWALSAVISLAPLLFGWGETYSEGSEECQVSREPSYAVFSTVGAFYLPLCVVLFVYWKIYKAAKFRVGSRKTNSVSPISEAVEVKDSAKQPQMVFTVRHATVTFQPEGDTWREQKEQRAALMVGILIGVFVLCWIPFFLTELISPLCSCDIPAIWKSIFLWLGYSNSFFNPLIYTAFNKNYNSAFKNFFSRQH

[6] = target: Ephrin type-B receptor 1 (Homo sapiens) (UniProt P54762); assay: EPHB1 SGC Tm panel (DSF); settings: Compound concentration 20.0 uM
Ephrin type-B receptor 1 (Homo sapiens), sequence (P54762 whole entry): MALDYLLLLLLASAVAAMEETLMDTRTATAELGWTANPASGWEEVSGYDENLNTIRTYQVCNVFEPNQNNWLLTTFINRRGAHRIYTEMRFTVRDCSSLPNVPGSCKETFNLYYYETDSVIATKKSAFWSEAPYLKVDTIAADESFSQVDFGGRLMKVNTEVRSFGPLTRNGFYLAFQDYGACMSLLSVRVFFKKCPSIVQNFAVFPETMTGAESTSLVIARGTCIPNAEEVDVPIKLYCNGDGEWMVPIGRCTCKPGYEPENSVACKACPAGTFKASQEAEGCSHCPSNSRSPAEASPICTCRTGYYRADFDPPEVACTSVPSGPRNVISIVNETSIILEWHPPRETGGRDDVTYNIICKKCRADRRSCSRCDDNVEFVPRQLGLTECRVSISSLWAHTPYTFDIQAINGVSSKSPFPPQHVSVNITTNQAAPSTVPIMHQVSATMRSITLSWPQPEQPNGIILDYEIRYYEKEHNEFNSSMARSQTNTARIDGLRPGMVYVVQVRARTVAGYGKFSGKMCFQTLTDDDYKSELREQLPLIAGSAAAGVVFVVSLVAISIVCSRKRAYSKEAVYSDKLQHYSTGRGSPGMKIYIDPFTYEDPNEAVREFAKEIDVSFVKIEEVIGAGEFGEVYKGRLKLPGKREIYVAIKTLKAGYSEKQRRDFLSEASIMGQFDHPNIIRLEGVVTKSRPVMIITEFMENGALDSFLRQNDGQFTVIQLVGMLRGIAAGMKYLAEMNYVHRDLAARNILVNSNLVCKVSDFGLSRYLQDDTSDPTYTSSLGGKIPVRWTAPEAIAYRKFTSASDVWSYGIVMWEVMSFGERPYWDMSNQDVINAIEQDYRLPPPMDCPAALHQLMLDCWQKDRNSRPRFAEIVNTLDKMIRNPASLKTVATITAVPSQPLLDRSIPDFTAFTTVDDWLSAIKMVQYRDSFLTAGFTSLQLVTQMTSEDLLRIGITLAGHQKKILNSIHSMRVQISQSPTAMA

[7] = target: Transcription regulator protein BACH2 (Homo sapiens) (UniProt Q9BYV9); settings: SUD4, Compound concentration 1.0 uM
Transcription regulator protein BACH2 (Homo sapiens), sequence (Q9BYV9 whole entry): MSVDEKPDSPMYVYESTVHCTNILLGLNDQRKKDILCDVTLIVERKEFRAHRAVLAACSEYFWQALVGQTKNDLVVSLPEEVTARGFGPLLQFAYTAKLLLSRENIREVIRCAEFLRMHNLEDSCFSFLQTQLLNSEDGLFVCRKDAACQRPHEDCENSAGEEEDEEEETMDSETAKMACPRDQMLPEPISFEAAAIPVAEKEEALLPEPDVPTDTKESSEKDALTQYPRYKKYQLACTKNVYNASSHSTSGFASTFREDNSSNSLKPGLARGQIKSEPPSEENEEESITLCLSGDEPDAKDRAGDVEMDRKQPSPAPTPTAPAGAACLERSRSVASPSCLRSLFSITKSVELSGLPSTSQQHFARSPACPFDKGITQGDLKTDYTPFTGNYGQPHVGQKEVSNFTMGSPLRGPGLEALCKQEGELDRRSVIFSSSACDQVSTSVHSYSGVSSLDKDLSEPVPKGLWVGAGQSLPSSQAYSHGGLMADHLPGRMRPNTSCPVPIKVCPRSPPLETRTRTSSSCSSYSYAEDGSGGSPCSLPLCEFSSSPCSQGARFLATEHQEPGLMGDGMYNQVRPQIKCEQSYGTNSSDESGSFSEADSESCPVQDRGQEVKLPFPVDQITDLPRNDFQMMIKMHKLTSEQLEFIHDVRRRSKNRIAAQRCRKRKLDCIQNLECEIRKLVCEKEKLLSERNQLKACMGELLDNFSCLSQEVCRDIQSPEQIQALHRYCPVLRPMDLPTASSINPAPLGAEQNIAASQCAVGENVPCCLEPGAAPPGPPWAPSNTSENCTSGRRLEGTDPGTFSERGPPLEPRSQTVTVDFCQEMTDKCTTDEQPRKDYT

[8] = target: Alpha-2C adrenergic receptor (Homo sapiens) (UniProt P18825); settings: Compound concentration 10.0 uM
Alpha-2C adrenergic receptor (Homo sapiens), sequence (P18825 whole entry): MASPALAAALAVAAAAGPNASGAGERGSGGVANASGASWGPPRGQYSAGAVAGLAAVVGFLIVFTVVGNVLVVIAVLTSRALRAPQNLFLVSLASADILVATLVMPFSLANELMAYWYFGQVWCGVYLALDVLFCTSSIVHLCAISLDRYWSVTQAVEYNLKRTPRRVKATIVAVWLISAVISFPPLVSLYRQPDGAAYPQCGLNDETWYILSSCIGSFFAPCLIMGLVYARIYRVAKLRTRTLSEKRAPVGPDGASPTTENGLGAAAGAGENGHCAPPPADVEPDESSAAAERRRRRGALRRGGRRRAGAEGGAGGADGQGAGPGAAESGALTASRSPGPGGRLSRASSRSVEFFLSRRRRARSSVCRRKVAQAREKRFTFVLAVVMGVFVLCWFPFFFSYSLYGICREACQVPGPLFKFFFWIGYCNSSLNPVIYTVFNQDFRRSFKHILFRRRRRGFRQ

[9] = target: Calcium/calmodulin-dependent protein kinase type IV (Homo sapiens) (UniProt Q16566); assay: CAMK4 SGC Tm panel (DSF); settings: Compound concentration 20.0 uM
[10] = target: T2, Zinc finger and BTB domain-containing protein 9 (Homo sapiens) (UniProt Q96C00); settings: SUD4, Compound concentration 1.0 uM
T2 sequence (whole entry): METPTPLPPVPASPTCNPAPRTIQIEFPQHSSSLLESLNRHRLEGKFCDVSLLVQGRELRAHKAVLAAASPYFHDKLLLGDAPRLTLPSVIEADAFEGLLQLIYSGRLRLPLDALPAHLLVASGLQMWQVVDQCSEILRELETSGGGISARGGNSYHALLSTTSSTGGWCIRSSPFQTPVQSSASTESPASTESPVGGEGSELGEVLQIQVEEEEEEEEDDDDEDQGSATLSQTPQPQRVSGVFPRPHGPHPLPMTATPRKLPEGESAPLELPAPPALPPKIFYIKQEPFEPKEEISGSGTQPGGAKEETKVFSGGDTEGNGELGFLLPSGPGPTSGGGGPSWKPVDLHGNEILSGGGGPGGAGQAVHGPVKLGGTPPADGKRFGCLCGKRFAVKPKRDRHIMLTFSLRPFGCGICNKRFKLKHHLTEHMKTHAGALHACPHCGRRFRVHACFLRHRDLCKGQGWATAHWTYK

[11] = target: T2, Zinc finger and BTB domain-containing protein 9 (Homo sapiens); settings: OCI-Ly1, Compound concentration 1.0 uM
[12] = target: Serine/threonine-protein kinase Nek7 (Homo sapiens) (UniProt Q8TDX7); assay: NEK7 SGC Tm panel (DSF); settings: Compound concentration 20.0 uM
Serine/threonine-protein kinase Nek7 (Homo sapiens), sequence (Q8TDX7 whole entry, looked up): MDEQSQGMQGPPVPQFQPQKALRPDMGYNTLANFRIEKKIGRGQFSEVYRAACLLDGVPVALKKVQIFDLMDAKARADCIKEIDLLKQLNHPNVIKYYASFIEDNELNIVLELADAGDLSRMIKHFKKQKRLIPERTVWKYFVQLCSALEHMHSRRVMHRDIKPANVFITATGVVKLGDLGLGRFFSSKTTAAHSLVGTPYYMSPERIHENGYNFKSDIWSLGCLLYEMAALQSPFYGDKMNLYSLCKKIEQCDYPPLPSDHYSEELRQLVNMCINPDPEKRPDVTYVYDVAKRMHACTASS

[13] = target: Serine/threonine-protein kinase 38-like (Homo sapiens) (UniProt Q9Y2H1); assay: STK38L SGC Tm panel (DSF); settings: Compound concentration 20.0 uM
Serine/threonine-protein kinase 38-like (Homo sapiens), sequence (Q9Y2H1 2-464 limits assumed): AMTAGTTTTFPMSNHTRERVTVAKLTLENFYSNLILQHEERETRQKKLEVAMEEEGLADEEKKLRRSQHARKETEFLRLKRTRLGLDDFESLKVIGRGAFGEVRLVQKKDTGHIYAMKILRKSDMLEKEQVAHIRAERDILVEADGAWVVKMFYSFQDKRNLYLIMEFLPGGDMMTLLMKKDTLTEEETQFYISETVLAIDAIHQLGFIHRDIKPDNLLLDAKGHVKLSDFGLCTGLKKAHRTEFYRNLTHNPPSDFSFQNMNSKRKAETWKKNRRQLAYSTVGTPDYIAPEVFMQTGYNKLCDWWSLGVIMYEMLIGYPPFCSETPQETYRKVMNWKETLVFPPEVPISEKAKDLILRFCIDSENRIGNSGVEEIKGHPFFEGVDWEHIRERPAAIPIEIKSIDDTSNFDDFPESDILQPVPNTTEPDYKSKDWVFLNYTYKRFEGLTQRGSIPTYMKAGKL

[14] = target: T3, Telomere zinc finger-associated protein (Homo sapiens) (UniProt P10074); settings: OCI-Ly1, Compound concentration 1.0 uM
T3 sequence (whole entry): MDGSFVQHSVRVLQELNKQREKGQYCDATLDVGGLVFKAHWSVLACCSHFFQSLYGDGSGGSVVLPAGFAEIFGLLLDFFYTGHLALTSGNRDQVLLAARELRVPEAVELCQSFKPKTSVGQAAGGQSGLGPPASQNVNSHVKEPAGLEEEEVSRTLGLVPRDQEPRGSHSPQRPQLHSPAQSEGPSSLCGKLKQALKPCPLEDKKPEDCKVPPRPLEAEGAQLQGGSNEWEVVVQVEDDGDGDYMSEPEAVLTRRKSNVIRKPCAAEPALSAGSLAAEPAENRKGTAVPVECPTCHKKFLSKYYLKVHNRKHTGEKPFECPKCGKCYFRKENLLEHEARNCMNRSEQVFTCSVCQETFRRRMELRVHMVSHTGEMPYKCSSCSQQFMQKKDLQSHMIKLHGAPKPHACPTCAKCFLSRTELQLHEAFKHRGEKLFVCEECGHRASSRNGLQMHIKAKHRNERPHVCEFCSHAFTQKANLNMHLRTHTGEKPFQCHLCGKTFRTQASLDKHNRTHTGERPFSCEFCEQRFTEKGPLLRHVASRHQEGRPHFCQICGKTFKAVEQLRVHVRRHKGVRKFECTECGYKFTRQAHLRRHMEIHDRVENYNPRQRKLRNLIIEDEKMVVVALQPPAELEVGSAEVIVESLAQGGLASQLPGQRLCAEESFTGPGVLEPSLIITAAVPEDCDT

Serine/threonine-protein kinase 24 (Homo sapiens), sequence (Q9Y6E0 whole entry, looked up, the tested form may be a part): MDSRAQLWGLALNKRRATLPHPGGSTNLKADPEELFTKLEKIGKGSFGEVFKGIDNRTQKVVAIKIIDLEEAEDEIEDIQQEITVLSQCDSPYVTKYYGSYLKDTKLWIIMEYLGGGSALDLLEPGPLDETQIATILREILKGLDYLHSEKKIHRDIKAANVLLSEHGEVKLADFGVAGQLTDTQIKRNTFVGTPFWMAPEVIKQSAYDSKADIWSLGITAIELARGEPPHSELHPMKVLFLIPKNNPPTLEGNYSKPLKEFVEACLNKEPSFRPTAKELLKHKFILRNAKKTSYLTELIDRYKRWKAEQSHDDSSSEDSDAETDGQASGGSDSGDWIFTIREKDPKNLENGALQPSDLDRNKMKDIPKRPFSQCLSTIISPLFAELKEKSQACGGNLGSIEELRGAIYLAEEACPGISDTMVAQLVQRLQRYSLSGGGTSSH

Tm [1]: 36 °C
LogFC [2]: 0.0235
Tm [3]: 41 °C
Tm [4]: 37 °C
Ki (Histamine H3 receptor; read-out: Ki): 2.33 µM
Ki (Histamine H3 receptor; read-out: pKi (converted)): 2.04 µM
inhibition [5]: 13.2%
Tm [6]: 57 °C
LogFC [7]: -0.0895
inhibition [8]: 15.1%
Tm [9]: 48 °C
LogFC [10]: 0.0873
LogFC [11]: -0.0251
Tm [12]: 42 °C
Tm [13]: 47 °C
LogFC [14]: 0.0229
SMILES: C[C@@H]1CN(c2ncc(Cl)c(Nc3ccc4c(c3)n(CCC(C)(C)O)c(=O)n4C)n2)C[C@H](C)C1(F)F
